For one compound, Ki results are on record in BindingDB's records for PubMed 9103528 (Pharmacia & Upjohn, 1997).

Experiment [1] concerns the target T1, Alpha-1A adrenergic receptor (Rattus norvegicus, UniProt P43140).
T1 sequence (P43140 whole entry): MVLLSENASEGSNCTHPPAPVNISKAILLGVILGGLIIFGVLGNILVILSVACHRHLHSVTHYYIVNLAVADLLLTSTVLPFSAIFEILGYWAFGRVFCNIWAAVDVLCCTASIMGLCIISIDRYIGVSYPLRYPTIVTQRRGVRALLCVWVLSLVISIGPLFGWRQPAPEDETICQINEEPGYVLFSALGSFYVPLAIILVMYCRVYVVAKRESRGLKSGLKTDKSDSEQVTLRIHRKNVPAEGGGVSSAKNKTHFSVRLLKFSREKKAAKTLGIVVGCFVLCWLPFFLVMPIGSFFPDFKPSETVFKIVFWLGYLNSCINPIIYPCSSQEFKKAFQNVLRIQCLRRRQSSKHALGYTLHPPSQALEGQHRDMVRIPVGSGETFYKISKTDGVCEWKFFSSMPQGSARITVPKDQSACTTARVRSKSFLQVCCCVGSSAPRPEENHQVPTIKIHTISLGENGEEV

In experiment [2] the target is T2, Alpha-2C adrenergic receptor (Rattus norvegicus, UniProt P22086).
T2 sequence (P22086 whole entry): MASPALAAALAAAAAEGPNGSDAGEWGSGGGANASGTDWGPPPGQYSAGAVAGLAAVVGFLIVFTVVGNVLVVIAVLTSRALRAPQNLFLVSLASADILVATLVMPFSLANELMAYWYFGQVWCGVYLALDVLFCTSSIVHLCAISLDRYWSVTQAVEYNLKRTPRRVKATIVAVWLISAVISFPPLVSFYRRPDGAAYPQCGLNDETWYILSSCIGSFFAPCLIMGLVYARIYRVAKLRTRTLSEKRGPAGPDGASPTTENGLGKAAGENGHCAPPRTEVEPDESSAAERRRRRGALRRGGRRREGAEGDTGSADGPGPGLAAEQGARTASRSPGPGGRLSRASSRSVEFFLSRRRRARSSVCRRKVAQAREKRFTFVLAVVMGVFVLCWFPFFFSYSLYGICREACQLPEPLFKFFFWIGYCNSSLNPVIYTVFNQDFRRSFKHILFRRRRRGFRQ

The target of experiment [3] is 5-hydroxytryptamine receptor 2A (Rattus norvegicus, UniProt P14842).
A further experiment addresses D(2) dopamine receptor (Rattus norvegicus, UniProt P61169).
The target of experiment [4] is T3, 5-hydroxytryptamine receptor 1A (Rattus norvegicus, UniProt P19327).
T3 sequence (P19327 whole entry): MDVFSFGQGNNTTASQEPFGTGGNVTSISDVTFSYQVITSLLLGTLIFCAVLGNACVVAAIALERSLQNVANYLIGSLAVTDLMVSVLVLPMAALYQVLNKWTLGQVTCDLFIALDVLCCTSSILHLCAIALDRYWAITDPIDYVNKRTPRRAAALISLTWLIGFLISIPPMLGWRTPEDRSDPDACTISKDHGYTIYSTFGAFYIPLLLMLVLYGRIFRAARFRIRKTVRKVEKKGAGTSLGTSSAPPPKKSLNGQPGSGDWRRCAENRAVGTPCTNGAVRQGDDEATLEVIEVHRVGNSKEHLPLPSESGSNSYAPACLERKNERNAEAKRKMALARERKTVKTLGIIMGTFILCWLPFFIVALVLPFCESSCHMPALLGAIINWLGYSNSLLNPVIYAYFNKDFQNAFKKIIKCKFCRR

In experiment [5] the target is T4, Muscarinic acetylcholine receptor M2 (Rattus norvegicus, UniProt P10980).
T4 sequence (P10980 whole entry): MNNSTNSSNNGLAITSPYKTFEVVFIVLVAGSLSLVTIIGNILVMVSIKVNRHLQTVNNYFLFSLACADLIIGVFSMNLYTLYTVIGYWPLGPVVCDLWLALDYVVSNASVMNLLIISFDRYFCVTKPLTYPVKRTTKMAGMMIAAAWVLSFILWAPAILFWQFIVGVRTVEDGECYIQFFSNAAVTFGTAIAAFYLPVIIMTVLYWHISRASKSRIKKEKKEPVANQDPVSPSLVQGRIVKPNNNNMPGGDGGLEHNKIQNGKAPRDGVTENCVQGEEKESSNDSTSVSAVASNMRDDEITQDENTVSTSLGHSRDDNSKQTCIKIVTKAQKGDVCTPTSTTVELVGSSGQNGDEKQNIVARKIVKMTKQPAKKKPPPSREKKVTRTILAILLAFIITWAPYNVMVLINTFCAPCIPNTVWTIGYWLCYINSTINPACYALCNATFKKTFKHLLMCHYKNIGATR

Chain of D(2) dopamine receptor (P61169 whole entry): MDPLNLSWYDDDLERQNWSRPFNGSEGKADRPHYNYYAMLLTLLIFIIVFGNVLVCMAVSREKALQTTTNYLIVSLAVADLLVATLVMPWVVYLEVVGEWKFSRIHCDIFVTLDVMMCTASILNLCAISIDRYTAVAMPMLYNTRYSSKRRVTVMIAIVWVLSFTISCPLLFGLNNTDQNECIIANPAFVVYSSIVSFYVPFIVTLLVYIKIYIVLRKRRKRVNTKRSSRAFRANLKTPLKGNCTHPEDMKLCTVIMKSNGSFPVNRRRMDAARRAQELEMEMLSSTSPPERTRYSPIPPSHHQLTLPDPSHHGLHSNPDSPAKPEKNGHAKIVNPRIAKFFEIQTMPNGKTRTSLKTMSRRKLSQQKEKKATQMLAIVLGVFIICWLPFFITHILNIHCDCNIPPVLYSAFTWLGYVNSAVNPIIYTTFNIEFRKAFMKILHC
Chain of 5-hydroxytryptamine receptor 2A (P14842 whole entry): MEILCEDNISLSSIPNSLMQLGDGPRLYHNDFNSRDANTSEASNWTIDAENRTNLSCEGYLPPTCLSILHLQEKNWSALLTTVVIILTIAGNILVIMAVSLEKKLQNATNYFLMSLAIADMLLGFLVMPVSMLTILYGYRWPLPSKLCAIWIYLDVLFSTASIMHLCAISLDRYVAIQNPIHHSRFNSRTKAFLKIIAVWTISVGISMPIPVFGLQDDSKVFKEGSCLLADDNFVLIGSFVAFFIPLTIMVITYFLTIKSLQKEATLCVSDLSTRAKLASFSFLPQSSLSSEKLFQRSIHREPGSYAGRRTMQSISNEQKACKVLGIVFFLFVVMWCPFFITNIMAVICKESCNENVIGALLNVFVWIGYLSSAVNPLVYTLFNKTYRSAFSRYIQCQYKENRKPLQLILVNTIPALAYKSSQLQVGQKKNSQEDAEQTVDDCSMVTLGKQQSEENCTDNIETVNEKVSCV

Take `Fc1ccc(N2CCN(CCC3OCCc4ccccc43)CC2)cc1` (stereo unspecified) [CAS_170856-41-4]: the inhibitory constant (Ki) in experiment [1] was 38 nM; in experiment [2], 181 nM; in experiment [3] it was 5.8 nM; on D(2) dopamine receptor, 199 nM; in experiment [4] it was 134 nM; in experiment [5], 678 nM.

Broadly, the Ki is the dissociation constant of the complex between target and ligand, obtained from inhibition or displacement. High values mean weaker binding, low ones tighter binding.
